Results: patent publication US7049396B2, “Synthetic peptides that inhibit leukocyte superoxide anion production and/or attract leukocytes” (priority 1995, dated 2006)
Values after ≈ are worked out from the molar mass of the structure shown. Where a SMILES comes first, the peptide text is derived from it.

How the values were obtained:
[1] = molecular target: T1, cell-free NADPH oxidase (human neutrophil cytosol and membranes) (Homo sapiens, UniProt P14598); assay: Cell-free O2- production assay; format: biochemical
T1 construct: 10^6 cell equivalents of human neutrophil cytosol; from tissue; host or cells: human peripheral blood neutrophils (cytosol and deoxycholate-solubilized membranes)
T1 sequence (P14598 1-390): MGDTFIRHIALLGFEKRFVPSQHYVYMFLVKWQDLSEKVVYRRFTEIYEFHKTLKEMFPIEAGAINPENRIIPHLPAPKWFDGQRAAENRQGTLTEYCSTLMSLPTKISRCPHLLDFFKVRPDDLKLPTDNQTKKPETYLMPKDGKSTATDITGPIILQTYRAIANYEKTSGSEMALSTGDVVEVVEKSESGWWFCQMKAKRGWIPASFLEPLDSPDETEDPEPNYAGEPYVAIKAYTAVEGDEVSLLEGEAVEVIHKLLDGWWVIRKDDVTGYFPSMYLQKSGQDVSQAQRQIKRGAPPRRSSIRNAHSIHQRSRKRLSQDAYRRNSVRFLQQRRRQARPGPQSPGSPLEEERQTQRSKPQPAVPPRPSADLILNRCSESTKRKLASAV
Protocol: Reactions (100 μl) contained 10^6 cell equivalents of human neutrophil cytosol and 5×10^5 cell equivalents of deoxycholate-solubilized membranes prepared from human peripheral blood neutrophils. […] Control reactions contained 5 μg of superoxide dismutase. Superoxide anion generation was calculated based on superoxide dismutase-inhibitable changes in cytochrome c absorbance observed at 551 nm. The reactions were followed for 20 min. after addition of arachidonic acid, with absorbance readings taken at 1-min. intervals. […] Determinations were based on reactions performed in duplicate. • (ii) Binding assays. Neutrophils were disrupted by sonication, and unbroken cells, debris, and granules were removed by centrifuigation (13,000×g for 60 min.). Cytosol fractions were prepared by centrifugation (100,000 g for 45 min.) of the supernatants to remove residual membranes. Cytosolic proteins (15 μg in reducing buffer) were separated on a 7.5% SDS PAGE gel, transferred to PVDF membranes, and probed with biotinylated PR-39 (0.3 μM) for 2 hr. Binding between PR-39 and cytosolic proteins were visualized by a chemiluminescent streptavidin alkaline phosphatase system using an Epson scanner (Torrance, Calif.) and the NIH Image program. PR-39 was labeled with biotin hydrazide at the carboxy-terminus (Pierce Chemical Co., Rockford, Ill.) and purified by gel filtration chromatography.

Streptococcus suis = assay: MIC/MBC microdilution broth method; format: cell-based; conditions: Streptococcus suis
Protocol: (§1) Plates were incubated at 37° C. for 18 hr. […] Viable bacteria were counted. Tests were repeated on three different days. […] The results were expressed as the mean ± standard deviation. […] S. choleraesuis, ATCC 6962 was used in this experiment. […] Slides were stained with LeukoStat solutions (Fisher, Pittsburgh, Pa.). […] At least 200 neutrophils were examined. […] Tests were repeated on three different days. Results were expressed as the mean±standard deviation.

Salmonella typhimurium = assay: MIC/MBC microdilution broth method; format: cell-based; conditions: Salmonella typhimurium
Protocol: as §1

Staphylococcus aureus = assay: MIC/MBC microdilution broth method; format: cell-based; conditions: Staphylococcus aureus
Protocol: as §1

Escherichia coli, 25922 = assay: MIC/MBC microdilution broth method; format: cell-based; conditions: Escherichia coli
Protocol: as §1

Salmonella choleraesuis = format: cell-based
Protocol: as §1

[2] = tested on: 47 kDa neutrophil cytosol protein; assay: Ligand-blot binding assay with biotinylated PR-39, porcine cytosol; conditions: biotinylated PR-39 probe
porcine neutrophils = assay: Neutrophil chemotaxis, modified Boyden chamber; format: cell-based; conditions: peptide at 0.05 μM, 30 min
Protocol: Influence of PR-39 on neutrophil chemotaxis. Chemotaxis of porcine neutrophils was measured by the procedure of Salak et al. (1993). Briefly, PR-14, PR15, PR-16, PR-26, or PR-39 (30 μl in Dulbecco's Modified Eagle's medium) were placed in the bottom chamber of a modified Boyden chamber (Neuro Probe, Cabin John, Md.) and porcine neutrophils (50 μl at 5×10^6 cells/ml) were placed in the top chamber. The chambers were incubated at 37° C. for 30 min. Cells that migrated through the porous membrane (pore size 5 μm) were stained using LeukoStat solution and enumerated. Five microscope fields were counted and the cells that migrated through the membrane were standardized to the medium control and referred to as the migration index.

[3] = molecular target: T2, interaction between GST-p47^phox and recombinant p22^phox (Homo sapiens, UniProt P14598); assay: Solution binding assay GST-p47phox-SH3 / recombinant p22phox; conditions: concentrations close to IC50's of the cell-free oxidase assay
T2 construct: (GST)-p47^phox-SH3 (residues 151–284) fusion protein; made in house; host or cells: p22phox fragment: baculovirus-infected cells (used as lysate)
Protocol: Methods for production of the glutathione S-transferase (GST)-p47^phox-SH3 (residues 151–284) fusion protein have been previously described (Leto et al., 1994). For solution binding assays, lysates of recombinant p22^phox protein (residues 127–195) from baculovirus-infected cells (2.5×10^4 cell equivalents per assay) were mixed with peptides and incubated for 1 hr. at 20° C. with 100 μl of GST-p47^phox bound to glutathione-Sepharose beads (15% suspension). Bound proteins were washed three times in 15 volumes of ice-cold 100 mM KCl/3 mM NaCl/3.5 mM MgCl2/0.15 mM phenylmethanesulfonyl fluoride/10 mM Pipes (pH 7.5), eluted with 1% SDS, and analyzed by SDS-PAGE followed by immunoblotting with mouse anti-p22^phox antibody (mAb 449; A. Verhoeven, Central Laboratories of the Netherlands Red Cross). Controls included blotting of recombinant p22^phox lysate (5×10^3 cell equivalents) alone (p22) and bound complexes detected without competing PR peptides (−).

[4] = molecular target: 47 kDa neutrophil cytosol protein (Homo sapiens, UniProt P14598); assay: Ligand-blot binding assay with biotinylated PR-39, human cytosol; conditions: biotinylated PR-39 probe
recombinant p47^phox = recombinant p47^phox (Homo sapiens, UniProt P14598); assay: Competitive ligand-blot binding assay
Protocol: Competitive ligand-blot assays were performed by incubating recombinant p47^phox (0.02 μM) with or without various concentrations (0.006, 0.06, and 0.6 μM) of PR-39 for 1 hr. at 37° C. and then with biotinylated PR-39 (0.06 μM) for an additional 1 hr. at 37° C. The solutions were dialyzed against ddH2O for 1 hr. at 4° C. before blotting to nitrocellulose (5 μl) and detection with a streptavidin alkaline-phosphatase detection system as described above.

S. typhimurium = assay: Postantibiotic effect (PAE); format: cell-based, Salmonella typhimurium; conditions: 2 hr exposure
Protocol: as §1

CC[C@H](C)[C@H](NC(=O)[C@H](CCCNC(=N)N)NC(=O)[C@@H]1CCCN1C(=O)[C@@H]1CCCN1C(=O)[C@H](CC(C)C)NC(=O)[C@H](CCCNC(=N)N)NC(=O)[C@@H]1CCCN1C(=O)[C@@H]1CCCN1C(=O)[C@H](Cc1ccccc1)NC(=O)[C@H](Cc1ccccc1)NC(=O)[C@@H]1CCCN1C(=O)[C@@H]1CCCN1C(=O)[C@@H]1CCCN1C(=O)[C@H](CCCNC(=N)N)NC(=O)[C@@H]1CCCN1C(=O)[C@H](CCCNC(=N)N)NC(=O)[C@@H]1CCCN1C(=O)[C@H](CC(C)C)NC(=O)[C@H](Cc1ccc(O)cc1)NC(=O)[C@@H]1CCCN1C(=O)[C@@H]1CCCN1C(=O)[C@H](CCCNC(=N)N)NC(=O)[C@@H]1CCCN1C(=O)[C@H](CCCNC(=N)N)NC(=O)[C@H](CCCNC(=N)N)NC(=O)[C@@H](N)CCCNC(=N)N)C(=O)N1CCC[C@H]1C(=O)N1CCC[C@H]1C(=O)NCC(=O)N[C@@H](Cc1ccccc1)C(=O)N1CCC[C@H]1C(=O)N1CCC[C@H]1C(=O)N[C@@H](CCCNC(=N)N)C(=O)N[C@@H](Cc1ccccc1)C(=O)N1CCC[C@H]1C(=O)N1CCC[C@H]1C(=O)N[C@@H](CCCNC(=N)N)C(=O)N[C@@H](Cc1ccccc1)C(=O)N1CCC[C@H]1C(=O)O [PR-39] (H-RRRPRPPYLPRPRPPPFFPPRLPPRIPPGFPPRFPPRFP-OH; N-terminus and C-terminus assumed) was tested, and the neutrophil viability (neutrophils) was “did not affect neutrophil viability”, the IC50 [1] was about 2000 nM and the “inhibition of O2- generation” value ([1]; cell-free assay, concentrations greater than 5 μM) was “completely inhibited”. For the same compound, the MBC (Streptococcus suis) was over 64 µM, the MIC (Streptococcus suis) was over 64 µM and the MBC (Salmonella typhimurium) was 4 µM (≈ 18.9 µg/mL). It also gave an MIC (Salmonella typhimurium) of 4 µM (≈ 18.9 µg/mL), an MIC (Staphylococcus aureus) of over 250 µM and an MBC (Escherichia coli, 25922) of 8 µM (≈ 37.8 µg/mL). For the same compound, the MIC (Escherichia coli, 25922) was 4 µM (≈ 18.9 µg/mL), the MBC (Salmonella choleraesuis) was 4 µM (≈ 18.9 µg/mL) and the MIC (Salmonella choleraesuis) was 2 µM (≈ 9.44 µg/mL). For the same compound, the “binding to 47 kDa cytosolic protein” value [2] was “bound”, the “neutrophil chemotaxis (migration index)” value (porcine neutrophils) was “chemotactic agents” and the “blocking of interaction between GST-p47phox and recombinant p22phox” value [3] was “effectively blocked”. For the same compound, the “binding to 47 kDa cytosolic protein” value [4] was “bound”, the “inhibition of binding of biotinylated PR-39 to recombinant p47phox” value (recombinant p47^phox; tenfold excess of unlabeled peptide) was “completely blocked” and the “inhibition of binding of biotinylated PR-39 to recombinant p47phox” value (recombinant p47^phox; unlabeled peptide 0.06 μM, equimolar to labeled) was 90%. The “PAE (growth delay)” value (S. typhimurium; 0.1 MIC) was “slight growth delay”, the PAE (S. typhimurium; 1 MIC) was “significantly increased” and the PAE (S. typhimurium; 8 MICs) was “significantly increased”.
